Source: patent publication US7241754B2, “2-Desmethyl ansamycin compounds” (priority 2003, dated 2007)

Assays:
SKBr3 cells = test: Cytotoxicity against SKBr3 cells (CellTiter-Glo, 72 h); assay type: cell-based; conditions: Homo sapiens, SK-BR-3, 72 h, read-out: Cytotoxicity against SKBr3 Cells (IC50, μM)
Procedure: Cytotoxicity was determined with SKBr3 cells (ATCC HTB-30), a breast cancer cell line. […] Cells were plated into 96-well microtiter back plates at 4,000 cells per 50μL per well, overnight. Serial 10x dilutions of test compound (10 μM to 0.1 pM) in cell culture media were prepared with a Biomek 2000 apparatus, using the protocols of deeper-1000 μL-media and deeper-1000 μL-dilution. 50 μL of each dilution was added to wells containing cells. Each compound or control (medium only) was tested in duplicate. For each assay, the wells contained a final volume of 100 μL (50 μL of cells and 50 μL of compound dilution). […] CellTiter-Glo Luminescent Reagent (Promega #G7573) (100 μL) was added to each well. The well contents were mixed for 5 min and the plates were kept at room temperature for another 30 min. Luminescence was recorded using a Wallac VICTOR^2 Multilabel Counter (PerkinElmer) and IC50 values were determined using Kaleidagraph software (Synergy Software).

Hsp90 = Hsp90 (Homo sapiens, UniProt P07900); test: Hsp90 filter binding assay
CCFT-CEM cells = test: Cytotoxicity against CCFT-CEM cells; conditions: read-out: IC50, cytotoxicity against CCFT-CEM cells

| Structure (SMILES) | IC50 (SKBr3 cells) [µM] | Kd (Hsp90) [nM] | IC50 (CCFT-CEM cells) [nM] |
| --- | --- | --- | --- |
| COC1=C2C[C@@H](C)C[C@H](OC)[C@H](O)[C@@H](C)/C=C(\C)[C@H](OC(N)=O)[C@@H](OC)/C=C\C=C(/C)C(=O)NC(=CC1=O)C2=O [Geldanamycin, reference compound] | 0.023 |  |  |
| C=CCOc1cc2cc(c1)NC(=O)C=CCCC(OC)C(OC(N)=O)C(C)=CC(C)C(O)C(OC)CC(C)C2 (centres unmarked) [Compound 1-B] | > 5 | 1000 |  |
| COC(=O)COc1cc2cc(c1)NC(=O)C=CCCC(OC)C(OC(N)=O)C(C)=CC(C)C(O)C(OC)CC(C)C2 (centres unmarked) [Compound 1-H] | > 5 | 360 |  |
| COC1CCC=CC(=O)Nc2cc(cc(O)c2CN2CCOCC2)CC(C)CC(OC)C(O)C(C)C=C(C)C1OC(N)=O (centres unmarked) [Compound 1-G] | > 5 | 640 |  |
| CO[C@H]1C[C@H](C)Cc2cc(O)cc(c2)NC(=O)/C=C/CC[C@H](OC)[C@@H](OC(N)=O)/C(C)=C/[C@H](C)[C@H]1O [Compound 1-A] | 0.85 | 17 | 2500 |
| COC1CCC=CC(=O)Nc2cc(cc(OCC(N)=O)c2)CC(C)CC(OC)C(O)C(C)C=C(C)C1OC(N)=O (centres unmarked) [Compound 1-E] | > 5 | 440 |  |
| CO[C@H]1C[C@H](C)Cc2cc(O)cc(c2)NC(=O)CC(O)CC[C@H](OC)[C@@H](O)/C(C)=C/[C@H](C)[C@H]1O (some centres unmarked) [IV] | > 5 | 17000 |  |
| COC1CCC=CC(=O)Nc2cc(O)c(Br)c(c2)CC(C)CC(OC)C(O)C(C)C=C(C)C1OC(N)=O (centres unmarked) [Compound 1-K] | 0.8 | 140 |  |
| COC1CCC=CC(=O)Nc2cc(cc(OCC(=O)O)c2)CC(C)CC(OC)C(O)C(C)C=C(C)C1OC(N)=O (centres unmarked) [Compound 1-I] | > 5 | 930 |  |
| COC1CCC=CC(=O)Nc2cc(cc(O)c2Br)CC(C)CC(OC)C(O)C(C)C=C(C)C1OC(N)=O (centres unmarked) [Compound 1-J] | > 5 | 1700 |  |
| COc1cc2cc(c1)NC(=O)C=CCCC(OC)C(OC(N)=O)C(C)=CC(C)C(O)C(OC)CC(C)C2 (centres unmarked) [Compound 1-D] | 6 | 510 |  |
| COC1CCC=CC(=O)Nc2cc(cc(O)c2CN(C)C)CC(C)CC(OC)C(O)C(C)C=C(C)C1OC(N)=O (centres unmarked) [Compound 1-F] | 0.63 | 200 |  |
| COC1CCC=CC(=O)Nc2cc(cc(OCCN(C)C)c2)CC(C)CC(OC)C(O)C(C)C=C(C)C1OC(N)=O (centres unmarked) [Compound 1-C] | > 10 | 230 |  |
| COC1CCC=CC(=O)Nc2cc(c(Br)c(O)c2Br)CC(C)CC(OC)C(O)C(C)C=C(C)C1OC(N)=O (centres unmarked) [Compound 1-M] | > 5 | 5900 |  |
| COC1CCC=CC(=O)Nc2cc(c(CN(C)CCN(C)C)c(O)c2Br)CC(C)CC(OC)C(O)C(C)C=C(C)C1OC(N)=O (centres unmarked) [Compound 1-N] | > 5 | 31000 |  |
| CO[C@H]1C[C@H](C)Cc2cc(O)cc(c2)NC(=O)CC(O)CC[C@H](OC)[C@@H](OC(N)=O)/C(C)=C/[C@H](C)[C@H]1O (some centres unmarked) [III] | > 5 | 1000 |  |
